Test results reported in patent US7553969B1, “Substituted phenethylamine derivatives” (Chugai Seiyaku Kabushiki Kaisha, priority 1999, dated 2009).
Where a SMILES comes first, the peptide text is derived from it. [ ]: non-standard residue; d: D form. The star is where a group is joined. ξ: configuration not given here. NMeTyr(3-tBu) = CN[C@@H](Cc1ccc(O)c(C(C)(C)C)c1)C(=O)O; ξNMeTyr(3-tBu) = CNC(Cc1ccc(O)c(C(C)(C)C)c1)C(=O)O; Tyr(3-tBu) = CC(C)(C)c1cc(C[C@H](N)C(=O)O)ccc1O; NMePhe(4-F) = CN[C@@H](Cc1ccc(F)cc1)C(=O)O; Phe(4-F) = N[C@@H](Cc1ccc(F)cc1)C(=O)O; ξPhe(4-CN) = N#Cc1ccc(CC(N)C(=O)O)cc1; NMeF = CN[C@@H](Cc1ccccc1)C(=O)O; NMeNva = CCC[C@H](NC)C(=O)O; NMeV = CN[C@H](C(=O)O)C(C)C; NHtBu = CC(C)(C)N*

Assays:
[1] = biological target: T1, motilin receptor (Oryctolagus cuniculus, UniProt G1T803); assay: Motilin receptor binding test (125I motilin, rabbit duodenum protein sample); conditions: 125I motilin 25 pM, concentration reducing specific binding by 50%
T1 construct: homogenized in 50 mM Tris buffer to prepare a protein sample; from tissue; host or cells: rabbit duodenum homogenate (mucous membrane separated)
Procedure: Motilin receptor binding test
A motilin receptor binding test was conducted in the following manner [Vantrappen et al., Regul. Peptides, 15, 143 (1986)]. The duodenum was extracted from a slaughtered rabbit, had the mucous membrane separated and homogenized in 50 mM Tris buffer to prepare a protein sample. The protein sample was incubated together with ^125I motilin 25 pM and thereafter the radioactivity bound to the protein was measured. Specific binding was defined as the difference between the radioactivity in the case of adding a great excess amount of motilin (10^−7 M) and that in the case of no adding. The activity of the compound was expressed by IC50 (in nM), as the concentration sufficient to reduce the specific binding by 50%.

[2] = tested on: specimen of longitudinal muscle in the duodenum extracted from a rabbit (motilin-induced contraction); assay: Action on the motilin-induced contraction of a specimen of longitudinal muscle in the duodenum extracted from a rabbit; conditions: Oryctolagus cuniculus, organ bath, Krebs solution 28° C., read-out: Contraction suppressing test, pA2 (converted)
Procedure: Action on the Contraction of a Specimen of Longitudinal Muscle in the Duodenum Extracted from a Rabbit
The action on the motilin-induced contraction of a specimen of longitudinal muscle in the duodenum extracted from a rabbit was investigated by the following method. A duodenum specimen (5×15 mm) extracted from a slaughtered rabbit was suspended in an organ bath (10 ml) such that the longitudinal muscle would run vertically; the bath was filled with a Krebs solution kept at 28° C. A mixed gas (95% O2 and 5% CO2) was continuously bubbled into the Krebs solution and the contraction of the duodenum specimen was recorded isotonically (with a 1-g load) via an isotonic transducer (ME-3407, ME Commercial, Tokyo, Japan). The degree of contraction was expressed in relative values, with the contraction by acetylcholine at a dose of 10^−4 M being taken as 100%. The activity of the compound was calculated as pA2 value indicating its effect on the dose-dependent muscle contraction by the motilin put into the organ bath.

T1 sequence (G1T803 1-400): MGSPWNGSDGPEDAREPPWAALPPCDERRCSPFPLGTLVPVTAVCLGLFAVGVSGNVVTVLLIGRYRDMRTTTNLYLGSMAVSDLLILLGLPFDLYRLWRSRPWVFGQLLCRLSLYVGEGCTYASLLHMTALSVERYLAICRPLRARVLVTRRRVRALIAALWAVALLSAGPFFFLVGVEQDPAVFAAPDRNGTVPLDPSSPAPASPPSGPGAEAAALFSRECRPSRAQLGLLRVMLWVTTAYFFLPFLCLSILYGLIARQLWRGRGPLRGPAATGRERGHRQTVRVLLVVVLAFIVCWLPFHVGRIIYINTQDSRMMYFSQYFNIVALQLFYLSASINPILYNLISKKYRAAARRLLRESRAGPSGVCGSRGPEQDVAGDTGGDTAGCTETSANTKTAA

Row | Structure (SMILES) | IC50 [1] | Kb [2]
1 | Cc1cc(=O)[nH]c([C@H](Cc2ccc(O)c(C(C)(C)C)c2)NC(=O)[C@H](C(C)C)N(C)C(=O)[C@@H](N)Cc2ccc(F)cc2)n1 (single isomer, unassigned) [Example 19, 2-(1-(2-((2-amino-3-(4-fluorophenyl)propionyl)-N-methylamino)-3-methyl-butyrylamino)-2-(3-tert-butyl-4-hydroxyphenyl)ethyl)-6-methyl-4-pyrimidinone] | 2.2 nM | 2 nM
2 | CCC[C@@H](C(=O)N(C)[C@@H](Cc1ccc(O)c(C(C)(C)C)c1)C(N)=O)N(C)C(=O)[C@@H](N)Cc1ccc(F)cc1 [Example 140, Phe(4-F)-N-Me-Nva-N-Me-Tyr(3-tBu)-NH2] (H-[Phe(4-F)]-[NMeNva]-[NMeTyr(3-tBu)]-NH2) | 4 nM | 6.31 nM
3 | CCN[C@@H](Cc1ccc(F)cc1)C(=O)N(C)[C@H](C(=O)N(CC)[C@@H](Cc1ccc(O)c(C(C)(C)C)c1)C(=O)NCO)C(C)C [Example 129, N-Et-Phe(4-F)-N-Me-Val-N-Et-Tyr(3-tBu)-NHCH2OH] | 4 nM | 3.16 nM
4 | CC(C)[C@@H](C(=O)N(C)C(Cc1ccc(O)c(C(C)(C)C)c1)C(N)=O)N(C)C(=O)C(N)Cc1ccc(C#N)cc1 (stereo partly shown) [Example 182, Phe(4-CN)-N-Me-Val-N-Me-Tyr(3-tBu)-NH2] (H-[ξPhe(4-CN)]-[NMeV]-[ξNMeTyr(3-tBu)]-NH2) | 2.3 nM | 3.16 nM
5 | CN(C(=O)[C@@H](N)Cc1ccc(F)cc1)[C@@H](Cc1ccccc1)C(=O)N(C)[C@@H](Cc1ccc(O)c(C(C)(C)C)c1)C(N)=O [Example 155, Phe(4-F)-N-Me-Phe-N-Me-Tyr(3-tBu)-NH2] (H-[Phe(4-F)]-[NMeF]-[NMeTyr(3-tBu)]-NH2) | 2.5 nM | 7.94 nM
6 | CC(C)[C@@H](C(=O)N[C@@H](Cc1ccc(O)c(C(C)(C)C)c1)c1nccs1)N(C)C(=O)[C@@H](N)Cc1ccc(F)cc1 (single isomer, unassigned) [Example 23, 2-((2-amino-3-(4-fluorophenyl)propionyl)-N-methylamino)-3-methylbutyric acid 2-(3-tert-butyl-4-hydroxyphenyl)-1-(thiazol-2-yl)ethylamide] | 0.67 nM | 0.501 nM
7 | CCNC(=O)[C@H](Cc1ccc(O)c(C(C)(C)C)c1)N(C)C(=O)[C@H](C(C)C)N(C)C(=O)[C@H](Cc1ccc(F)cc1)NCC [Example 106, N-Et-Phe(4-F)-N-Me-Val-N-Me-Tyr(3-tBu)-NHEt] | 0.62 nM | 0.158 nM
8 | CN[C@@H](Cc1ccc(F)cc1)C(=O)N(C)[C@H](C(=O)N(C)[C@@H](Cc1ccc(O)c(C(C)(C)C)c1)C(N)=O)C(C)C [Example 34, N-Me-Phe(4-F)-N-Me-Val-N-Me-Tyr(3-tBu)-NH2] (H-[NMePhe(4-F)]-[NMeV]-[NMeTyr(3-tBu)]-NH2) | 1.5 nM | 0.398 nM
9 | CCN[C@@H](Cc1ccc(F)cc1)C(=O)N(C)[C@H](C(=O)N(C)[C@@H](Cc1ccc(O)c(C(C)(C)C)c1)C(=O)NC)C(C)C [Example 38, N-Et-Phe(4-F)-N-Me-Val-N-Me-Tyr(3-tBu)-NHMe] | 3 nM | 6.31 nM
10 | CCN(C(=O)[C@H](C(C)C)N(C)C(=O)[C@H](Cc1ccc(F)cc1)NC)[C@@H](Cc1ccc(O)c(C(C)(C)C)c1)C(=O)NC [Example 43, N-Me-Phe(4-F)-N-Me-Val-N-Et-Tyr(3-tBu)-NHMe] | 1.9 nM | 3.16 nM
11 | CCN(C(=O)[C@H](C(C)C)N(C)C(=O)[C@H](Cc1ccc(F)cc1)NC)[C@@H](Cc1ccc(O)c(C(C)(C)C)c1)C(N)=O [Example 40, N-Me-Phe(4-F)-N-Me-Val-N-Et-Tyr(3-tBu)-NH2] | 1.6 nM | 2.51 nM
12 | CC(C)[C@@H](C(=O)N(C)[C@@H](Cc1ccc(O)c(C(C)(C)C)c1)C(=O)NC1CC1)N(C)C(=O)[C@@H](N)Cc1ccc(F)cc1 [Example 121, Phe(4-F)-N-Me-Val-N-Me-Tyr(3-tBu)-NH-c-Pr] | 0.41 nM | 1.26 nM
13 | CN(C(=O)[C@@H](N)Cc1ccc(F)cc1)[C@@H](Cc1ccc(F)cc1)C(=O)N(C)[C@@H](Cc1ccc(O)c(C(C)(C)C)c1)C(N)=O [Example 157, Phe(4-F)-N-Me-Phe(4-F)-N-Me-Tyr(3-tBu)-NH2] (H-[Phe(4-F)]-[NMePhe(4-F)]-[NMeTyr(3-tBu)]-NH2) | 6.1 nM | 7.94 nM

Now from value to compound, other results behind:

Row | IC50 [1] | Structure (SMILES) | Kb [2]
14 | 0.62 nM | CC(C)[C@@H](C(=O)N[C@@H](Cc1ccc(O)c(C(C)(C)C)c1)C(=O)NC(C)(C)C)N(C)C(=O)[C@@H](N)Cc1ccc(F)cc1 [Example 63, Phe(4-F)-N-Me-Val-Tyr(3-tBu)-NHtBu] (H-[Phe(4-F)]-[NMeV]-[Tyr(3-tBu)]-NHtBu) | 3.98 nM
15 | 0.98 nM | CCN[C@@H](Cc1ccc(F)cc1)C(=O)N(C)[C@H](C(=O)N[C@@H](Cc1ccc(O)c(C(C)(C)C)c1)C(=O)NCO)C(C)C [Example 124, N-Et-Phe(4-F)-N-Me-Val-Tyr(3-tBu)-NHCH2OH] | 0.794 nM
16 | 0.7 nM | CC(C)[C@@H](C(=O)N[C@H](CNS(C)(=O)=O)Cc1ccc(O)c(C(C)(C)C)c1)N(C)C(=O)[C@@H](N)Cc1ccc(F)cc1 [Example 14, N-[2-(3-tert-butyl-4-hydroxyphenyl)-1-(methanesulfonylaminomethyl)ethyl]-2-[N-(4-fluorophenylalaminoyl)methylamino]-3-methylbutanamide] | 0.501 nM
17 | 0.24 nM | CCNC(=O)[C@H](Cc1ccc(O)c(C(C)(C)C)c1)NC(=O)[C@H](C(C)C)N(C)C(=O)[C@@H](N)Cc1ccc(F)cc1 [Example 101, Phe(4-F)-N-Me-Val-Tyr(3-tBu)-NHEt] (H-[Phe(4-F)]-[NMeV]-[Tyr(3-tBu)]-NHEt) | 1.26 nM
18 | 0.86 nM | CCNC(=O)[C@H](Cc1ccc(O)c(C(C)(C)C)c1)NC(=O)[C@H](C(C)C)N(C)C(=O)[C@H](Cc1ccc(F)cc1)NCC [Example 103, N-Et-Phe(4-F)-N-Me-Val-Tyr(3-tBu)-NHEt] | 1.26 nM
19 | 0.39 nM | CCNC(=O)[C@H](Cc1ccc(O)c(C(C)(C)C)c1)N(CC)C(=O)[C@H](C(C)C)N(C)C(=O)[C@@H](N)Cc1ccc(F)cc1 [Example 107, Phe(4-F)-N-Me-Val-N-Et-Tyr(3-tBu)-NHEt] | 2 nM
20 | 0.35 nM | CC(C)[C@@H](C(=O)N[C@@H](Cc1ccc(O)c(C(C)(C)C)c1)C(=O)Nc1ccccn1)N(C)C(=O)[C@@H](N)Cc1ccc(F)cc1 [Example 8, 2-((2-amino-3-(4-fluorophenyl)propionyl)-N-methylamino)-3-methylbutyric acid 2-(3-tert-butyl-4-hydroxyphenyl)-1-(2-pyridylcarbamoyl)ethylamide] | 0.316 nM
21 | 0.47 nM | CC(C)[C@@H](C(=O)N[C@@H](Cc1ccc(O)c(C(C)(C)C)c1)C(=O)NCO)N(C)C(=O)[C@@H](N)Cc1ccc(F)cc1 [Example 122, Phe(4-F)-N-Me-Val-Tyr(3-tBu)-NHCH2OH] | 1 nM
22 | 0.52 nM | CC(C)[C@@H](C(=O)N[C@@H](Cc1ccc(O)c(C(C)(C)C)c1)C(N)=O)N(C)C(=O)[C@@H](N)Cc1ccc(F)cc1 [Example 28, Phe(4-F)-N-Me-Val-Tyr(3-tBu)-NH2] (H-[Phe(4-F)]-[NMeV]-[Tyr(3-tBu)]-NH2) | 1 nM
23 | 0.79 nM | CNC(=O)[C@H](Cc1ccc(O)c(C(C)(C)C)c1)NC(=O)[C@H](C(C)C)N(C)C(=O)[C@@H](N)Cc1ccc(F)cc1 [Example 31, Phe(4-F)-N-Me-Val-Tyr(3-tBu)-NHMe] (H-[Phe(4-F)]-[NMeV]-[Tyr(3-tBu)]-NHMe) | 0.316 nM
